The values below come from ChEMBL document CHEMBL1201862, “PubChem BioAssay data set” (2004).

Among the test systems are A549; COLO 205; HL-60; HOP-62; HOP-92; HT-29; IGROV-1; LOX IMVI; M14; NCI-H226; OVCAR-4; OVCAR-8; SK-MEL-5; SK-OV-3; SR; TK-10; HCC 2998; RXF 393; UO-31; NCI/ADR-RES.
What all share (test): NCI tumour cell line growth inhibition, 48 h

SMILES strings stand for the structures.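 Following 48 hours of exposure in 96-well plates, responses at five concentrations were used to interpolate endpoints linearly. The concentration for 50% growth inhibition is given as GI50.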 The source made the active and inactive calls. Cut-off read from the data, not from the text of the source: active = GI50 up to about 1.1 µM and inactive = higher.

In the case of `CCCCCNC(=O)c1c(O)[nH]c(=S)[nH]c1=O`, the GI50 in the experiment with A549 was 66.5 µM (inactive); with COLO 205, > 100 µM (inactive); in the experiment with HL-60 it was > 100 µM (inactive); in the experiment with HOP-62, > 100 µM (inactive); with HOP-92 it was > 100 µM (inactive); with HT-29, > 100 µM (inactive). Moreover, the GI50 was > 100 µM (inactive) with IGROV-1; > 100 µM (inactive) in the experiment with LOX IMVI; > 100 µM (inactive) in the experiment on M14; > 100 µM (inactive) with NCI-H226; 41.6 µM (inactive) with OVCAR-4; 94.4 µM (inactive) in the experiment on OVCAR-8. The GI50 in the experiment with SK-MEL-5, in the experiment with SK-OV-3, in the experiment on SR and in the experiment on TK-10 was > 100 µM (inactive) in each case.
Take `COc1ccc(-c2c(-c3ccccc3)c(C)nc3nc(SC)nc(SC)c23)cc1OC`: the GI50 in the experiment on A549 was 1.4 µM (inactive); in the experiment on COLO 205, 11.6 µM (inactive); with HCC 2998 it was 25 µM (inactive); in the experiment on HL-60 it was 3.14 µM (inactive); in the experiment with HOP-62 it was 9.08 µM (inactive); with HOP-92 it was 4.39 µM (inactive). The GI50 with HT-29 is 5.71 µM (inactive); with IGROV-1, 30 µM (inactive); in the experiment on LOX IMVI, 11.4 µM (inactive); in the experiment on M14, 22.8 µM (inactive); with NCI-H226 it was 17.3 µM (inactive); with RXF 393 it was 17.1 µM (inactive). The GI50 in the experiment on SK-MEL-5 was 4.76 µM (inactive); in the experiment on SK-OV-3 it was 3.72 µM (inactive); in the experiment with SR, 0.565 µM (active); in the experiment with TK-10 it was 23.6 µM (inactive); in the experiment with UO-31, 3.79 µM (inactive).
As for `CC1(O)CCC2(C#N)CCC1C2O` (configuration not stated), the GI50 in the experiment with A549 was > 100 µM (inactive); in the experiment with COLO 205, 33.9 µM (inactive); in the experiment with HCC 2998 it was > 100 µM (inactive); with HL-60 it was > 100 µM (inactive); in the experiment on HOP-62, > 100 µM (inactive); in the experiment on HT-29 it was > 100 µM (inactive). For the same compound, the GI50 with IGROV-1 was > 100 µM (inactive); in the experiment on LOX IMVI it was 23.2 µM (inactive); in the experiment with M14 it was > 100 µM (inactive); in the experiment on NCI-H226, > 100 µM (inactive); with OVCAR-4, > 100 µM (inactive); with OVCAR-8, > 100 µM (inactive). Further, the GI50 in the experiment on RXF 393 is > 100 µM (inactive); in the experiment on SK-MEL-5 it was > 100 µM (inactive); in the experiment on SK-OV-3, > 100 µM (inactive); with SR, 20.3 µM (inactive); with TK-10, > 100 µM (inactive); with UO-31 it was > 100 µM (inactive).
Consider `Cc1c(/C=N/NC(=O)c2ccccc2O)c(=O)n(-c2ccccc2)n1C`, for which the GI50 was > 100 µM (inactive) in the experiment with A549; > 100 µM (inactive) in the experiment on COLO 205; > 100 µM (inactive) in the experiment with HCC 2998; 28.1 µM (inactive) with HL-60; 58.3 µM (inactive) in the experiment with HOP-62; > 100 µM (inactive) with HOP-92. Moreover, the GI50 in the experiment with HT-29 is > 100 µM (inactive); in the experiment with IGROV-1, > 100 µM (inactive); in the experiment with LOX IMVI, 45.4 µM (inactive); in the experiment on M14, > 100 µM (inactive); in the experiment with NCI-H226, > 100 µM (inactive); in the experiment with OVCAR-4, > 100 µM (inactive). In addition, the GI50 with OVCAR-8 is > 100 µM (inactive); with RXF 393, 49.2 µM (inactive); in the experiment with SK-OV-3, > 100 µM (inactive); in the experiment on SR, 45.8 µM (inactive); in the experiment on TK-10, > 100 µM (inactive); with UO-31, 54.7 µM (inactive).
With `C[C@H]1C(=O)O[C@@H]2CCN3CC=C(COC(=O)[C@](C)(O)[C@@]1(C)O)[C@H]23`, the GI50 in the experiment with A549, with COLO 205, in the experiment on HCC 2998, in the experiment on HL-60, in the experiment with HOP-62 and in the experiment with HOP-92 was > 100 µM (inactive) throughout. Also, the GI50 in the experiment with HT-29, in the experiment on IGROV-1, with LOX IMVI, in the experiment with M14, in the experiment with NCI-H226 and in the experiment on NCI/ADR-RES was > 100 µM (inactive) throughout. The GI50 in the experiment on OVCAR-4, with OVCAR-8, with SK-MEL-5, with SK-OV-3, in the experiment on TK-10 and with UO-31 was > 100 µM (inactive) in each case.
`COc1ccc(C(CC(=O)c2cccs2)C(=O)c2ccc3c(c2)OCO3)cc1` (configuration not stated): the GI50 with A549, with COLO 205, with HCC 2998, in the experiment on HL-60, in the experiment on HOP-62 and in the experiment on IGROV-1 was > 100 µM (inactive) throughout. Moreover, the GI50 in the experiment with LOX IMVI, with M14, in the experiment on NCI/ADR-RES, in the experiment on OVCAR-4, with OVCAR-8 and with SK-MEL-5 was > 100 µM (inactive) each time. The GI50 in the experiment on SK-OV-3 and with TK-10 was > 100 µM (inactive) in each case.
For `CC(=O)Nc1ccccc1-c1nc2ccccc2nc1C`, the GI50 in the experiment on A549, in the experiment on COLO 205, in the experiment with HL-60, in the experiment on HOP-62, in the experiment on HOP-92 and in the experiment on HT-29 was > 100 µM (inactive) in each case. The GI50 with IGROV-1, in the experiment with LOX IMVI, in the experiment on M14, in the experiment with NCI-H226, with OVCAR-4 and in the experiment on OVCAR-8 was > 100 µM (inactive) each time. In addition, the GI50 in the experiment on SK-MEL-5 is > 100 µM (inactive); in the experiment with SK-OV-3, > 100 µM (inactive); in the experiment with SR, > 100 µM (inactive); in the experiment on TK-10, > 100 µM (inactive); in the experiment on UO-31, 61.9 µM (inactive).
Regarding `C/C1=C\[C@@H](C)C[C@@H](C)OC(=O)[C@@H](C)NC(=O)[C@H](Cc2ccc(O)c(Br)c2)N(C)C(=O)CNC(=O)[C@H](C)C1`, the GI50 in the experiment on A549, in the experiment on COLO 205, with HCC 2998, with HL-60, in the experiment on HOP-62 and with HOP-92 was < 0.01 µM (active) throughout. For the same compound, the GI50 with HT-29 was < 0.01 µM (active); with IGROV-1, < 0.01 µM (active); in the experiment on LOX IMVI, < 0.01 µM (active); in the experiment on M14, < 0.0202 µM (active); with NCI/ADR-RES, 0.0366 µM (active); in the experiment on OVCAR-4, < 0.01 µM (active). In addition, the GI50 in the experiment with OVCAR-8 is 0.137 µM (active); in the experiment on RXF 393, < 0.0184 µM (active); in the experiment with SK-MEL-5, < 0.01 µM (active); with SK-OV-3, < 0.01 µM (active); in the experiment with TK-10 it was < 0.0157 µM (active); in the experiment with UO-31 it was 0.026 µM (active).
For `O=C(CSc1nnc(-c2ccc(/N=C\c3ccc(Cl)cc3)cc2)o1)Nc1ccccc1`, the GI50 in the experiment with A549 is > 100 µM (inactive); with COLO 205, > 100 µM (inactive); in the experiment with HL-60, 34.4 µM (inactive); in the experiment on HOP-62 it was > 100 µM (inactive); in the experiment with HT-29, 44.2 µM (inactive); in the experiment on LOX IMVI it was 19.6 µM (inactive). In addition, the GI50 in the experiment with M14 is 76 µM (inactive); with NCI-H226 it was > 100 µM (inactive); with OVCAR-4 it was > 100 µM (inactive); with OVCAR-8, > 100 µM (inactive); in the experiment on RXF 393, 33 µM (inactive); in the experiment on SK-MEL-5 it was 89.9 µM (inactive). Further, the GI50 in the experiment on SK-OV-3 is > 100 µM (inactive); with SR, 33.1 µM (inactive); in the experiment with TK-10, > 100 µM (inactive); in the experiment on UO-31, 98.4 µM (inactive).
With `CC(=O)C(/N=N\C1CCC(S(=O)(=O)NB2N=CS2)CC1)C(=O)Nc1ccccc1C` (configuration not stated), the GI50 with A549 is 13 µM (inactive); in the experiment with COLO 205, 20.9 µM (inactive); in the experiment with HCC 2998, 17.5 µM (inactive); in the experiment with HL-60, > 100 µM (inactive); with HOP-62, 20 µM (inactive); with HOP-92 it was 19.2 µM (inactive). For the same compound, the GI50 in the experiment with HT-29 was 16 µM (inactive); in the experiment on IGROV-1, 17.4 µM (inactive); with M14 it was 19.2 µM (inactive); in the experiment with NCI-H226, 14.9 µM (inactive); with OVCAR-4, 12.8 µM (inactive); in the experiment on OVCAR-8, 10.5 µM (inactive). Besides, the GI50 is 21 µM (inactive) with RXF 393; 12.6 µM (inactive) with SK-MEL-5; 27 µM (inactive) in the experiment with SK-OV-3; 43.7 µM (inactive) in the experiment on SR; 25.6 µM (inactive) with TK-10; 18.8 µM (inactive) with UO-31.
As for `N#C/C(=C\c1ccc(C(O)P(=O)(O)O)cc1)C(N)=O` (configuration not stated), the GI50 in the experiment with A549 is > 100 µM (inactive); in the experiment on COLO 205, > 100 µM (inactive); in the experiment on HCC 2998, 3.66 µM (inactive); in the experiment on HL-60, 6.01 µM (inactive); in the experiment on HOP-62, 73.3 µM (inactive); in the experiment with HOP-92 it was > 100 µM (inactive). The GI50 with HT-29, in the experiment on IGROV-1, with LOX IMVI, with M14, in the experiment on NCI-H226 and in the experiment with OVCAR-4 was > 100 µM (inactive) each time. Further, the GI50 with OVCAR-8, with SK-MEL-5, with SK-OV-3, in the experiment on TK-10 and with UO-31 was > 100 µM (inactive) each time.
